Laboratory results published in patent publication US9546172B2, “Pyrazolo[3,4-d]pyrimidine and pyrazolo[2,3-d]pyrimidine compounds as kinase inhibitors” (Pharmacyclics LLC, priority 2011, dated 2017).

Assays:
Format in all cases: biochemical
[1] = biological target: Lck (Homo sapiens, UniProt P06239); assay: Lck kinase inhibition
Outline: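 Signal is the ratio of fluorescence at 665 versus 615 nm (excitation 330 nm), read after stopping kinase reactions with EDTA and a one-hour incubation with detection reagents, Eu anti-p-Tyr100 at 2.5 nM and streptavidin-APC at 100 nM. Inhibition reported as IC50 computed from fitted Ki(app), [ATP]=Km.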

[2] = biological target: C-src (Homo sapiens, UniProt P12931); assay: C-src kinase inhibition
Sequence of C-src (P12931 whole entry): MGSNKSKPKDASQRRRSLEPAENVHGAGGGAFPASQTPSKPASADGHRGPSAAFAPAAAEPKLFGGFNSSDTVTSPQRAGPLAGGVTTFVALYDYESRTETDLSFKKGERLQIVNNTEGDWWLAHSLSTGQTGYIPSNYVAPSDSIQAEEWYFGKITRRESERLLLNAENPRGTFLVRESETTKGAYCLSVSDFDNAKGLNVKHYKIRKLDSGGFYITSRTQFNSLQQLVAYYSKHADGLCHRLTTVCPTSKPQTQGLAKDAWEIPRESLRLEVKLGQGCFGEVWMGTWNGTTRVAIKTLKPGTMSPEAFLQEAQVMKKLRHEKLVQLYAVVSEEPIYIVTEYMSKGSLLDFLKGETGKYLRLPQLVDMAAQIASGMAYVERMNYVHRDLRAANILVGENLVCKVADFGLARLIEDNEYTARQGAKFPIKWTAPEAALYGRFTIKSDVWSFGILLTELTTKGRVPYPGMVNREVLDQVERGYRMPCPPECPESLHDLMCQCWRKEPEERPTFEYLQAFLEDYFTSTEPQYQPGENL

[3] = biological target: BLK (Homo sapiens, UniProt P51451); assay: BLK kinase inhibition
Sequence of BLK (P51451 whole entry): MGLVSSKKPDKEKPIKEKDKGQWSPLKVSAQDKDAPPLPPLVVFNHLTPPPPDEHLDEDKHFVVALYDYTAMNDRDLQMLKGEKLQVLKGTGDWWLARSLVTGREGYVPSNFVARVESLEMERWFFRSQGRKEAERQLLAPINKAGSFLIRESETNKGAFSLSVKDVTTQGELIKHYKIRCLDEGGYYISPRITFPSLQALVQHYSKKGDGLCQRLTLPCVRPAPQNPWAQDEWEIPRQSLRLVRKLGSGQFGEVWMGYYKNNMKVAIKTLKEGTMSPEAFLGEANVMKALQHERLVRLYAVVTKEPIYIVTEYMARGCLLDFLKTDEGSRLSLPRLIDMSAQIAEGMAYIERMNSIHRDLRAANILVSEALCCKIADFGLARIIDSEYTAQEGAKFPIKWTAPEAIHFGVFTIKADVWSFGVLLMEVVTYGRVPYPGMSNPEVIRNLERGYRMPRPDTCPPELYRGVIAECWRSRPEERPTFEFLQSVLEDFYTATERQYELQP
Procedure: (§1) Btk kinase activity was determined using a time-resolved fluorescence resonance energy transfer (TR-FRET) methodology. Measurements were performed in a reaction volume of 50 μL using 96-well assay plates. […] The reaction was quenched by the addition of 1.2 equivalents of EDTA (relative to divalent cation) in 25 μL of 1× Lance buffer (Perkin-Elmer). Streptavidin-APC (Perkin-Elmer) and Eu-labeled p-Tyr100 antibody (Perkin-Elmer) in 1× Lance buffer were added in a 25 μL volume to give final concentrations of 100 nM and 2.5 nM, respectively, and the mixture was allowed to incubate for one hour. The TR-FRET signal was measured on a multimode plate reader with an excitation wavelength (λEx) of 330 nm and detection wavelengths (λEm) of 615 and 665 nm. Activity was determined by the ratio of the fluorescence at 665 nm to that at 615 nm. For each compound, enzyme activity was measured at various concentrations of compound. Negative control reactions were performed in the absence of inhibitor in replicates of six, and two no-enzyme controls were used to determine baseline fluorescence levels Inhibition constants, Ki(app), were obtained using the program BatchKi (Kuzmic et al. (2000), Anal. Biochem. 286:45-50). IC50s were obtained according to the equation: IC50={Ki(app)/(1+[ATP]/Km^ATP)}+[E]total/2; For all kinases, [ATP]=Km^ATP, [Btk]total=0.5 nM and [Lck]total=6 nM.

[4] = biological target: Lyn (Homo sapiens, UniProt P07948); assay: Lyn kinase inhibition
Sequence of Lyn (P07948 whole entry): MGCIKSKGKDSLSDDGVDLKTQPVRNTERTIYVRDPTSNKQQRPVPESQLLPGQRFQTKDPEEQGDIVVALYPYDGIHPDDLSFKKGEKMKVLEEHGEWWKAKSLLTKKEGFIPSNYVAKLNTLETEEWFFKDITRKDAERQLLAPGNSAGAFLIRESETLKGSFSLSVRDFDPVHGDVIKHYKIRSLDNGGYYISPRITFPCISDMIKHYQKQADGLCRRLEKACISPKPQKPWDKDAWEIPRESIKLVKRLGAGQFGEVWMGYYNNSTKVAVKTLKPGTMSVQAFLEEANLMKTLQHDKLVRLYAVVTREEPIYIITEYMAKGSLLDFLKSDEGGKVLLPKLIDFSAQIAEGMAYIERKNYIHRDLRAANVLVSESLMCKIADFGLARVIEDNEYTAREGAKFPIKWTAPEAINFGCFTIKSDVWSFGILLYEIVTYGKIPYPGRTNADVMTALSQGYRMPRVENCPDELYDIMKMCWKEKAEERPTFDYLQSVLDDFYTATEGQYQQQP

[5] = biological target: T1, BMX (Homo sapiens, UniProt P51813); assay: BMX kinase inhibition
T1 sequence (P51813 1-675): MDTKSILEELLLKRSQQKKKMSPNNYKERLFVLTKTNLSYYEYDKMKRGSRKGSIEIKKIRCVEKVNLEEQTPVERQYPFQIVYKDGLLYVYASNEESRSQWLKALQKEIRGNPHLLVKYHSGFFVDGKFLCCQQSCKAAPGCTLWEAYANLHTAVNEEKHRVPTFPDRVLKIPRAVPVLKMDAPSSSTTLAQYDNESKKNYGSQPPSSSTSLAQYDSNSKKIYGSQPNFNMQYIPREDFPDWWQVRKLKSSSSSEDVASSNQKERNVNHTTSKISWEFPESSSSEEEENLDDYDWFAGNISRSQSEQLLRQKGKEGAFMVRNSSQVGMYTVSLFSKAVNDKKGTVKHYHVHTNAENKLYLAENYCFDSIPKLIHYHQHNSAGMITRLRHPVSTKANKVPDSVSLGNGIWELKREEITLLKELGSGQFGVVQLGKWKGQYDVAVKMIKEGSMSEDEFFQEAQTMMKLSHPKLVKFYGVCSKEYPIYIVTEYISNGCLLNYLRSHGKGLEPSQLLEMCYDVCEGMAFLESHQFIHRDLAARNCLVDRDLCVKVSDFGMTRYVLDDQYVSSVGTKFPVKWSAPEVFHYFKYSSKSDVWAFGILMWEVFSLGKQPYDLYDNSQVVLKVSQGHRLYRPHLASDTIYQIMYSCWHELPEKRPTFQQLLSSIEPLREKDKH

[6] = biological target: RET (Homo sapiens, UniProt P07949); assay: RET kinase inhibition
Sequence of RET (P07949 29-1114): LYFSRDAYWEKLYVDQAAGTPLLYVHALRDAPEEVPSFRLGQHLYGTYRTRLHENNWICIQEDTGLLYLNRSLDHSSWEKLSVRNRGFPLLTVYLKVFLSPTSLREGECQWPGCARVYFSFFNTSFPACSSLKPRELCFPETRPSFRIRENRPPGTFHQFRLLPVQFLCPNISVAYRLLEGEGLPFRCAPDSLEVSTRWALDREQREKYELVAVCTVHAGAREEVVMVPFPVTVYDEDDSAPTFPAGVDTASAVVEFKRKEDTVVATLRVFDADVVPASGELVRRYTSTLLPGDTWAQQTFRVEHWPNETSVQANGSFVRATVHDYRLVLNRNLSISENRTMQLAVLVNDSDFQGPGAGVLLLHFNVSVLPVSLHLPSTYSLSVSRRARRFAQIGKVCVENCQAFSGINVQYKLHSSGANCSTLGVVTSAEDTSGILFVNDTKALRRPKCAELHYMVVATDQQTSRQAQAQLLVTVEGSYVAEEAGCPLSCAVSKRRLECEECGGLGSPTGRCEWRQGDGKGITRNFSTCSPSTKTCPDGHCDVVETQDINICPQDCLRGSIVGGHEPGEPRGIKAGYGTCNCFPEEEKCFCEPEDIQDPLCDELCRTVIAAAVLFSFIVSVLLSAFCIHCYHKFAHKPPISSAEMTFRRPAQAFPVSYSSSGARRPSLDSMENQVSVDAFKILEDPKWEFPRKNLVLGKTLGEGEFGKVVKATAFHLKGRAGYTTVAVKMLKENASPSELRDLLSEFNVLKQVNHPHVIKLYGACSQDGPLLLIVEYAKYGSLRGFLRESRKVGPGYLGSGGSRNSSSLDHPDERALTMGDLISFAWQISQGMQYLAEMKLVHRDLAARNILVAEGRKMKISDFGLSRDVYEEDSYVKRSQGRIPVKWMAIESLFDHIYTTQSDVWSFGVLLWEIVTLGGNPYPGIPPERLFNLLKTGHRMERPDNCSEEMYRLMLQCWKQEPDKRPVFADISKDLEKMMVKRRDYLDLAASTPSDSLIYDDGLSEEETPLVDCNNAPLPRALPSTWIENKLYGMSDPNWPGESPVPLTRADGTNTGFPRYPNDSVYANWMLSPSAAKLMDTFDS

[7] = biological target: EGFR (Homo sapiens, UniProt P00533); assay: EGFR kinase inhibition
Sequence of EGFR (P00533 25-1210): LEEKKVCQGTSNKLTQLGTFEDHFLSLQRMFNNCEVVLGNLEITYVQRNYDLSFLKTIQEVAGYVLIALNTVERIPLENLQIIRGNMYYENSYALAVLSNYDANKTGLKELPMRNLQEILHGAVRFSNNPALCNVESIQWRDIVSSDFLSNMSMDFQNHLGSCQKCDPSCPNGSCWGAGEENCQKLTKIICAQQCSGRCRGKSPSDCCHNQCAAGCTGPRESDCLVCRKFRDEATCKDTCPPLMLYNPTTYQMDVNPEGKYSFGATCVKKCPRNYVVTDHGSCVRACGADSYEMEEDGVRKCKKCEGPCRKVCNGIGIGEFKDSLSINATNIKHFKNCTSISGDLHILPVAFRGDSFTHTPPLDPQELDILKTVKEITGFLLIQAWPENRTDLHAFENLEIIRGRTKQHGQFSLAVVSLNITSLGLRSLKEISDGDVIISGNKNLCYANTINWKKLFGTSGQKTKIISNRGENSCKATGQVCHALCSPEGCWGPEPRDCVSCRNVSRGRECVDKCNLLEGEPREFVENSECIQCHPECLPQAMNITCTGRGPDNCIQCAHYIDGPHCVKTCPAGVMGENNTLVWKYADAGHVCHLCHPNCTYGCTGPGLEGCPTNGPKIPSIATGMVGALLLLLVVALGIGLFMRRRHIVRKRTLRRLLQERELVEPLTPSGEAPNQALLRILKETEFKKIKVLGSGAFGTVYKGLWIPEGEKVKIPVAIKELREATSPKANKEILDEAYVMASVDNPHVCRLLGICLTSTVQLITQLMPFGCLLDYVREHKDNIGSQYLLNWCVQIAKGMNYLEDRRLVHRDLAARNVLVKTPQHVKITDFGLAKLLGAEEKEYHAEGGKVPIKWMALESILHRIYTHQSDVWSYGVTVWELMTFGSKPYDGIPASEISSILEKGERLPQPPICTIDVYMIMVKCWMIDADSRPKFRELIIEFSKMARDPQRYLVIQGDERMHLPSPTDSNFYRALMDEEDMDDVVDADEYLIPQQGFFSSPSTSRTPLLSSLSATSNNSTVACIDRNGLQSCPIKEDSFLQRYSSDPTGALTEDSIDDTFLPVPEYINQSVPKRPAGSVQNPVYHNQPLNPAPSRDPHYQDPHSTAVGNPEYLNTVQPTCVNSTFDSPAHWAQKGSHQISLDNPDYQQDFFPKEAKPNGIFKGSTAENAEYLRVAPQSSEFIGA

[8] = biological target: CSK (Homo sapiens, UniProt P41240); assay: CSK kinase inhibition
[9] = biological target: T2, Btk (Homo sapiens, UniProt Q06187); assay: Btk in vitro inhibitory activity (one of Methods A, B, C); settings: determined in one of three in vitro assays (Examples 125-127)
T2 construct: purified from insect cells as a full-length construct containing a N-terminal 6×-His tag; 6xHis (N); host or cells: insect cells (baculovirus Sf21 in Method B)
T2 sequence (Q06187 whole entry): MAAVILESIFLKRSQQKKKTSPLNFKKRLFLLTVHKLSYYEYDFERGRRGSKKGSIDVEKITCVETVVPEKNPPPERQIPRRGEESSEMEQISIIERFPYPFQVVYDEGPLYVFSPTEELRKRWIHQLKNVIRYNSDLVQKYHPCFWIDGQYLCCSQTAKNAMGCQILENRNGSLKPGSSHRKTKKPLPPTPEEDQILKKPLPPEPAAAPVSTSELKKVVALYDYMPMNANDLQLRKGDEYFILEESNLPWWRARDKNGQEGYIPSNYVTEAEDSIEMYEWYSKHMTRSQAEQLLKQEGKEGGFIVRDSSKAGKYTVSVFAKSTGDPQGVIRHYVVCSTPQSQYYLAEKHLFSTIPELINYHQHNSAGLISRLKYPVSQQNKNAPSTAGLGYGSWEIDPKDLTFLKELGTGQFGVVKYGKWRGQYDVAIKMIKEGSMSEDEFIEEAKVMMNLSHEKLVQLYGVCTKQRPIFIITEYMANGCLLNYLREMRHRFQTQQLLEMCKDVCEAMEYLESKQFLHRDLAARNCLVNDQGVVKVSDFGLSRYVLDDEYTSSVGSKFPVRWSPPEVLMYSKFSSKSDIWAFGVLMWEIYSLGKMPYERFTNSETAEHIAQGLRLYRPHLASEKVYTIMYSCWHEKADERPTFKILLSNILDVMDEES
Outline: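 Values come from one of three formats: TR-FRET (665/615 nm ratio; Ki(app) converted to IC50 with [ATP]=Km, 0.5 nM Btk), mobility-shift product/sum ratio over 12 concentrations with 4-parameter fit, or radiometric filter binding using His-tagged full-length human Btk (8 nM), 0.2 mg/mL poly-Glu-Tyr, 1 μM ATP, 120 min RT.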

[10] = biological target: T3, Tec (Homo sapiens, UniProt P42680); assay: Tec kinase inhibition
T3 sequence (P42680 1-631): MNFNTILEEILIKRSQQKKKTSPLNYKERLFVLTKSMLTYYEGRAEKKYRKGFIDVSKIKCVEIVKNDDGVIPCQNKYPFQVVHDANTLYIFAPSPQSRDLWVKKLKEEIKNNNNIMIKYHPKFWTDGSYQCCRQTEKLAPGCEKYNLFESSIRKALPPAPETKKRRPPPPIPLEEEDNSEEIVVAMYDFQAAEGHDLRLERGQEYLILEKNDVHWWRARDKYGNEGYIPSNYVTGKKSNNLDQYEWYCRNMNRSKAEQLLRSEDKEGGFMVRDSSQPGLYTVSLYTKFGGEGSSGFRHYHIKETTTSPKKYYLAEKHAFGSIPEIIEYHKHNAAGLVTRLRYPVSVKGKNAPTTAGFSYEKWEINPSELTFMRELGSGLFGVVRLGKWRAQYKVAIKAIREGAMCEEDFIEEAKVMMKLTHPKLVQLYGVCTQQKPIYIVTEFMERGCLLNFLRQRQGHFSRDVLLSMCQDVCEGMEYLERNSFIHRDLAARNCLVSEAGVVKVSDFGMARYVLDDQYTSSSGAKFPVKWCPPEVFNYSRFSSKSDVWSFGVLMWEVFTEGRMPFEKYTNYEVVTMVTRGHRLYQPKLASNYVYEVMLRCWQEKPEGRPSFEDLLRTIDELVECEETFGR
Procedure: as §1

Sequence of Lck (P06239 whole entry): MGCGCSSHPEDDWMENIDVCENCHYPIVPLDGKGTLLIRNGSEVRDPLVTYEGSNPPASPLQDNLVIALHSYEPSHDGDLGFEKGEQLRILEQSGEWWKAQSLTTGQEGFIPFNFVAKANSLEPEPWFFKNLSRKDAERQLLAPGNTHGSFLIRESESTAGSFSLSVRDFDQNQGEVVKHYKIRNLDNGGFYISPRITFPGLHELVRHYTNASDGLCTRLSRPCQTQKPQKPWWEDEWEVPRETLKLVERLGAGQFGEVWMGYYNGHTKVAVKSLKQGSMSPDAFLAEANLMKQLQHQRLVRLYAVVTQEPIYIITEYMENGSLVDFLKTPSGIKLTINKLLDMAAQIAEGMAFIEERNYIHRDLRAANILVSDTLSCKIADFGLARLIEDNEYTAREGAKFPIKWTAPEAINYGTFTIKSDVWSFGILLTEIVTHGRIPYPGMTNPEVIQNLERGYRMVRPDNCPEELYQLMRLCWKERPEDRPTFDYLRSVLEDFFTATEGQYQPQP

SMILES | IC50 [1] [µM] | IC50 [2] [µM] | IC50 [3] [µM] | IC50 [4] [µM] | IC50 [5] [µM] | IC50 [6] [µM] | IC50 [7] [µM] | IC50 [8] [µM] | IC50 [9] [µM] | IC50 [10] [µM]
COc1cc(-c2nn([C@@H]3CCN(C(=O)/C=C/CN(C)C)C3)c3ncnc(N)c23)ccc1C [Example 9, (R,E)-1-(3-(4-amino-3-(3-methoxy-4-methylphenyl)-1H-pyrazolo[3,4-d]pyrimidin-1-yl)pyrrolidin-1-yl)-4-(dimethylamino)but-2-en-1-one] | < 0.1 | < 0.1 | < 0.1 | 0.1 to 1 | < 0.1 | > 1 | < 0.1 | 0.1 to 1 | < 0.1 | < 0.1
CN(C/C=C/C(=O)N1CC[C@@H](n2nc(-c3ccc(Cl)cc3)c3c(N)ncnc32)C1)C1CCC1 [Example 10, (R,E)-1-(3-(4-amino-3-(4-chlorophenyl)-1H-pyrazolo[3,4-d]pyrimidin-1-yl)pyrrolidin-1-yl)-4-(cyclobutyl(methyl)amino)but-2-en-1-one] | 0.1 to 1 | > 1 | 0.1 to 1 | > 1 | < 0.1 | 0.1 to 1 | 0.1 to 1 | > 1 | < 0.1 | < 0.1
CN(C/C=C/C(=O)N1CC[C@@H](n2nc(-c3ccc(F)cc3)c3c(N)ncnc32)C1)C1CCC1 [Example 11, (R,E)-1-(3-(4-amino-3-(4-fluorophenyl)-1H-pyrazolo[3,4-d]pyrimidin-1-yl)pyrrolidin-1-yl)-4-(cyclobutyl(methyl)amino)but-2-en-1-one] | 0.1 to 1 | > 1 | > 1 | > 1 | < 0.1 | > 1 | > 1 | > 1 | < 0.1 | < 0.1
Cc1ccc(-c2nn([C@@H]3CCN(C(=O)/C=C/CN(C)C4CCC4)C3)c3ncnc(N)c23)cc1 [Example 12, (R,E)-1-(3-(4-amino-3-p-tolyl-1H-pyrazolo[3,4-d]pyrimidin-1-yl)pyrrolidin-1-yl)-4-(cyclobutyl(methyl)amino)but-2-en-1-one] | 0.1 to 1 | 0.1 to 1 | 0.1 to 1 | > 1 | < 0.1 | 0.1 to 1 | > 1 | > 1 | < 0.1 | < 0.1
COc1cccc(-c2nn([C@@H]3CCN(C(=O)/C=C/CN(C)C4CCC4)C3)c3ncnc(N)c23)c1 [Example 13, (R,E)-1-(3-(4-amino-3-(3-methoxyphenyl)-1H-pyrazolo[3,4-d]pyrimidin-1-yl)pyrrolidin-1-yl)-4-(cyclobutyl(methyl)amino)but-2-en-1-one] | 0.1 to 1 | > 1 | 0.1 to 1 | > 1 | < 0.1 | > 1 | > 1 | > 1 | < 0.1 | < 0.1

Second part, the compound after the results:

IC50 [1] [µM] | IC50 [2] [µM] | IC50 [3] [µM] | IC50 [4] [µM] | IC50 [5] [µM] | IC50 [6] [µM] | IC50 [7] [µM] | IC50 [8] [µM] | IC50 [9] [µM] | IC50 [10] [µM] | SMILES
0.1 to 1 | < 0.1 | 0.1 to 1 | 0.1 to 1 | < 0.1 | 0.1 to 1 | 0.1 to 1 | 0.1 to 1 | < 0.1 | < 0.1 | CN(C)C/C=C/C(=O)N(C)c1ccc(-n2nc(-c3ccc(Cl)cc3)c3c(N)ncnc32)cc1 [Example 14, (E)-N-(4-(4-amino-3-(4-chlorophenyl)-1H-pyrazolo[3,4-d]pyrimidin-1-yl)phenyl)-4-(dimethylamino)-N-methylbut-2-enamide]
0.1 to 1 | 0.1 to 1 | < 0.1 | > 1 | < 0.1 | > 1 | < 0.1 | > 1 | < 0.1 | < 0.1 | CN(C)C/C=C/C(=O)N(C)c1cccc(-n2nc(-c3ccc(Cl)cc3)c3c(N)ncnc32)c1 [Example 21, (E)-N-(3-(4-amino-3-(4-chlorophenyl)-1H-pyrazolo[3,4-d]pyrimidin-1-yl)phenyl)-4-(dimethylamino)-N-methylbut-2-enamide]
0.1 to 1 | < 0.1 | < 0.1 | < 0.1 | < 0.1 | > 1 | < 0.1 | > 1 | < 0.1 | < 0.1 | COc1cc(-c2nn(-c3cccc(N(C)C(=O)/C=C/CN(C)C4CCC4)c3)c3ncnc(N)c23)ccc1C [Example 23, (E)-N-(3-(4-amino-3-(3-methoxy-4-methylphenyl)-1H-pyrazolo[3,4-d]pyrimidin-1-yl)phenyl)-4-(cyclobutyl(methyl)amino)-N-methylbut-2-enamide]
< 0.1 | < 0.1 | < 0.1 | 0.1 to 1 | < 0.1 | 0.1 to 1 | < 0.1 | 0.1 to 1 | < 0.1 | < 0.1 | CN(C)C/C=C/C(=O)Nc1cccc(-n2nc(-c3ccc(Cl)cc3)c3c(N)ncnc32)c1 [Example 27, (E)-N-(3-(4-amino-3-(4-chlorophenyl)-1H-pyrazolo[3,4-d]pyrimidin-1-yl)phenyl)-4-(dimethylamino)but-2-enamide]
